The source of these data is the OligoGym collection.

Where “and” joins values, the source holds several entries; their conditions need not be identical. Equal entries are not always repeated. After the bases stand the sugars from the 5' end (letter, count) and the backbone: PS all phosphorothioate, else s phosphorothioate and o phosphodiester by linkage. Methylation of C is not given here. e = 2'-O-(2-methoxyethyl) (MOE); k = constrained ethyl (cEt); d = 2'-deoxy (DNA)

One data set has as its target IRF5. Particulars: ASO.
The target of a further data set is DGAT2. As to conditions: ASO.

Regarding CACTGACACAGGCGGA (sugars k3 d10 k3, PS), the target mRNA inhibition in the data set with IRF5 (KARPAS-229, 4 µM) was 1% and 0%.
In the case of GTGAGACGAGCAAAGG (sugars k3 d10 k3, PS), the target mRNA inhibition is 60% in the data set with IRF5 (KARPAS-229, 0.44444 µM); 49% in the data set with IRF5 (KARPAS-229, 1.33333 µM); 49% and 74% with IRF5 (KARPAS-229, 4 µM); 77% with IRF5 (KARPAS-229, 12 µM).
The sequence TAGTGTCATGGAATTT (sugars k3 d10 k3, PS) yielded a target mRNA inhibition with IRF5 (KARPAS-229, 4 µM) of 38%.
The same measure, in the same setting: the value for GAGCAAAGGGTGAGTA (sugars k3 d10 k3, PS) was 0%.
The same measure, in the same setting: the value for “AGGAAGTGAGTCTCAA (sugars kkdddddddddkekek, PS)” was 42%; that for “CTTCTGCAGGGAGTCA (sugars kkdddddddddkdkdk, PS)” was 0%.
Regarding “CTGATATGATACCTAA (sugars k3 d1 k1 d8 k3, PS)”, the target mRNA inhibition with IRF5 (A-431, 0.00412 µM) worked out at 20%; in the data set with IRF5 (A-431, 0.01225 µM), 29%; with IRF5 (A-431, 0.03704 µM), 38%; with IRF5 (A-431, 0.11111 µM), 64%; with IRF5 (A-431, 0.33333 µM), 83%; with IRF5 (A-431, 1 µM) it was 83%.
For “CCATTCTATGCCTTTT (sugars kkddddddddddkeke, PS)”, the target mRNA inhibition with IRF5 (KARPAS-229, 0.44444 µM) is 37%; with IRF5 (KARPAS-229, 1.33333 µM) it was 45%; with IRF5 (KARPAS-229, 4 µM), 61% and 62%; with IRF5 (KARPAS-229, 12 µM) it was 73%.
In the data set with IRF5 (KARPAS-229, 4 µM), “AGGTTCTTGGACTCTC (sugars k2 d8 e4 k2, PS)” gave a target mRNA inhibition of 17%.
The same measure, in the same setting: to “CCATTCTATGCCTTTT (sugars kkddddddddkekekk, PS)” belongs 3%.
Still for that read-out and setting: the value for “CCATTCTATGCCTTTT (sugars kkdddddddddkdkdk, PS)” was 46%.
The same measure, in the same setting: the value for “CCATTCTATGCCTTTT (sugars kkkddddddddkekek, PS)” was 44%; that for ATTTGCCTTCTGCAGG (sugars k3 d10 k3, PS) was 0%.
In the data set with IRF5 (KARPAS-229, 4 µM), “GTTATCTCCGTCCTGG (sugars kkddddddddkekekk, PS)” showed a target mRNA inhibition of 0%.
The same measure, in the same setting: the value for CTAGTGTCATGGAATT (sugars k3 d10 k3, PS) was 34%; that for “GGTGTATTTCCCTGTC (sugars kkddddddddkekekk, PS)” was 0%.
ACATCCATCAATGAGG (sugars k3 d10 k3, PS) gave a target mRNA inhibition in the data set with IRF5 (KARPAS-229, 4 µM) of 0%.
Still for that read-out and setting: to “GTTCTTGGACTCTCAA (sugars k2 d8 e4 k2, PS)” belongs 8%.
Same read-out and setting: the value for “TGAGTCATGGAGCTGAG (sugars k2 d9 e3 k2 d1, PS)” was 16%; that for GCTGTCACATCTCCAC (sugars k3 d10 k3, PS) was 33%; that for “CTGTCACATCTCCACA (sugars kkddddddddkekekk, PS)” was 0%.
Still for that read-out and setting: to “GGAAGTGAGTCTCAAA (sugars kkkddddddddkekek, PS)” belongs 45%; to GAGACGAGCAAAGGGT (sugars k3 d10 k3, PS), 40%; to “CATTCCATATACACAC (sugars kddddddddddkekek, PS)”, 31%.
As for “GAGTCATGGGCTGAGG (sugars k2 d9 e3 k2, PS)”, the target mRNA inhibition in the data set with IRF5 (KARPAS-229, 4 µM) is 30%.
Same read-out and setting: to “AGATGGTGTTATCTCC (sugars kkkddddddddkekek, PS)” belongs 0%.
Same read-out and setting: the value for “AGCTTGGTCTTGACCT (sugars kkkddddddddkdkdk, PS)” was 12%; that for “GGTCTTGACCTCCCGC (sugars kddddddddddkekek, PS)” was 37%; that for “CCAATTTTGCATTCCA (sugars k2 d8 e4 k2, PS)” was 48%.
Still for that read-out and setting: the value for “CTTGGTCTTGACCTCC (sugars kkddddddddddkeke, PS)” was 39%; that for “GCATTCCATATACACA (sugars kdddddddddkekeke, PS)” was 34%; that for “CTTGGTCTTGACCTCC (sugars kkdddddddddkdkdk, PS)” was 13%.
In turn, “GGTGTATTTCCCTGTC (sugars k3 d9 k3 e1, PS)” had a target mRNA inhibition in the data set with IRF5 (KARPAS-229, 4 µM) of 0%.
Still for that read-out and setting: the value for CCAATGCAACATCCAT (sugars k3 d10 k3, PS) was 0%; that for ATTCCAATTTTGCATT (sugars k3 d10 k3, PS) was 21%.
Still for that read-out and setting: the value for “GGTCTGGCCCTTTTGG (sugars kkddddddddddkeke, PS)” was 0%; that for “GGTCTTTGAGGTCTGG (sugars k2 d8 e4 k2, PS)” was 56%; that for “AGATGGTGTTATCTCC (sugars kddddddddddkekek, PS)” was 0%.
In turn, “GTCTTGACCTCCCGCT (sugars k2 d8 e4 k2, PS)” registered a target mRNA inhibition with IRF5 (KARPAS-229, 4 µM) of 34%.
The same measure, in the same setting: the value for “GTTCTTGGACTCTCAA (sugars kkdddddddddkekek, PS)” was 31%; that for “GGTCTTTGAGGTCTGG (sugars k3 d9 k3 e1, PS)” was 33%.
Same read-out and setting: to “CAGGTTCTTGGACTCT (sugars kkddddddddkekekk, PS)” belongs 0%.
The same measure, in the same setting: to “ACATCTCCACATCAGT (sugars kkddddddddddkeke, PS)” belongs 36%.
“GAGTGAGACGAGCAAA (sugars kdddddddddkekeke, PS)” returned a target mRNA inhibition in the data set with IRF5 (KARPAS-229, 4 µM) of 6%.
On the same count and under the same terms, the value for CCCAATGCAACATCCA (sugars k3 d10 k3, PS) was 12%; that for “GTTATCTCCGTCCTGG (sugars kekdddddddddeekk, PS)” was 13%.
On the same count and under the same terms, the value for “CACTGACACAGGCGGA (sugars kekdddddddddeekk, PS)” was 0%; that for “GGGCACAGCGCAGGTT (sugars kdddddddddkekeke, PS)” was 33%; that for “CTTGGTCTTGACCTCC (sugars kkkddddddddkekek, PS)” was 1%.
In the data set with IRF5 (KARPAS-229, 4 µM), “TGCACTGACACAGGCG (sugars kkddddddddddkeke, PS)” returned a target mRNA inhibition of 16%.
On the same count and under the same terms, to “AAGGGCACAGCGCAGG (sugars kkddddddddkekekk, PS)” belongs 0%; to “CACATCTCCACATCAG (sugars kddddddddddkekek, PS)”, 15%.
For the sequence “GTGAGTCTCAAACCAG (sugars k3 d9 k3 e1, PS)”, the target mRNA inhibition is 23% in the data set with IRF5 (KARPAS-229, 0.44444 µM); 39% with IRF5 (KARPAS-229, 1.33333 µM); 44% and 50% with IRF5 (KARPAS-229, 4 µM); 59% with IRF5 (KARPAS-229, 12 µM).
“GTTCTTGGACTCTCAA (sugars kkddddddddddkeke, PS)”: the target mRNA inhibition with IRF5 (KARPAS-229, 4 µM) was 27%.
Still for that read-out and setting: the value for “AGGAGTGAGACGAGCA (sugars kkdddddddddkekek, PS)” was 36%.
As to “GCACCTTGTATTAAATACTC (sugars e5 d10 e5, PS)”, the target mRNA inhibition with DGAT2 (HepG2, 2.5 µM) was found to be 75%; with DGAT2 (HepG2, 10 µM) it was 91%.
In the data set with DGAT2 (HepG2, 0.12 µM), “TGGTATCCAAAGATATAGTT (sugars e5 d10 e5, PS)” returned a target mRNA inhibition of 42%.
As to “GGAGTTTGTGTTTCCCATTT (sugars e5 d10 e5, PS)”, the target mRNA inhibition was 81% and 72% in the data set with DGAT2 (HepG2, 2.5 µM); 91% and 84% with DGAT2 (HepG2, 10 µM).
Take “CTTGTGCTTGTCGAAGAGCT (sugars e5 d10 e5, PS)”: the target mRNA inhibition with DGAT2 (HepG2, 2.5 µM) was determined as 33%; in the data set with DGAT2 (HepG2, 10 µM), 66%.
With “TCATTCTCTCCAAAGGAGTA (sugars e5 d10 e5, PS)”, in the data set with DGAT2 (HepG2, 0.12 µM), the target mRNA inhibition was 18%.
